Where two headings read alike, the source gives them in different places.
Target: human RORgammaT-Ligand Binding Domain (LBD) (Homo sapiens (Human), UniProt P51449)
Assay: RORγ-Ligand Binding Domain TR-FRET assay (co-activator peptide SRC1_2 recruitment)
Assay type: biochemical
[1] = HIS-tagged RORγ-LBD 3 nM, biotinylated SRC1 LXXLL peptide 100 nM, incubated overnight at 4° C., 665 nm/615 nm signal quotient

Sequence of human RORgammaT-Ligand Binding Domain (LBD) (P51449 269-508): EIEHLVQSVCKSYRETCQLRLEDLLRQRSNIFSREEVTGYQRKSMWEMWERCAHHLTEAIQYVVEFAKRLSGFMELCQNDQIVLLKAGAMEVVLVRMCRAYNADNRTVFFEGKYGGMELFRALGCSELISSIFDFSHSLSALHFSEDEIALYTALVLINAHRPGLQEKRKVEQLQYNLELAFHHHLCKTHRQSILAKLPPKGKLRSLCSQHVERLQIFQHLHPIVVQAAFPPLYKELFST

| IC50 [1] [µM] | Compound | IC50 [µM] |
| --- | --- | --- |
| > 10 | O=C(O)c1ccc(-c2nn(Cc3c(F)cccc3F)c3cccnc23)c(F)c1 [Example 1P, 4-[1-(2,6-difluorobenzyl)-1H-pyrazolo[4,3-b]pyridin-3-yl]-3-fluorobenzoic acid] | – |
| > 10 | CC(c1ccccc1C(F)(F)F)n1nc(-c2ccc(C(=O)O)cc2F)c2ncccc21 (stereo not shown) [Example 1K, 3-fluoro-4-(1-{1-[2-(trifluoromethyl)phenyl]ethyl}-1H-pyrazolo[4,3-b]pyridin-3-yl)benzoic acid] | – |
| > 10 | O=C(O)c1ccc(-c2nn(Cc3c(F)ccc(F)c3F)c3cccnc23)c(F)c1 [Example 1N, 3-fluoro-4-[1-(2,3,6-trifluorobenzyl)-1H-pyrazolo[4,3-b]pyridin-3-yl]benzoic acid] | – |
| – | N#Cc1ccc(Cl)cc1Cn1nc(-c2ccc(C(=O)O)cc2F)c2ncccc21 [Example 1J, 4-[1-(5-chloro-2-cyanobenzyl)-1H-pyrazolo[4,3-b]pyridin-3-yl]-3-fluorobenzoic acid] | > 10 |

From patent US9556168B2, “N-alkylated indole and indazole compounds as RORgammaT inhibitors and uses thereof” (Merck Sharp & Dohme Corp., priority 2012, dated 2017)
